# In US9102614B2, “Naphth-2-ylacetic acid derivatives to treat AIDS” (Gilead Sciences, Inc., priority 2010, dated 2015):
# Test system: HIV-IIIb
# Experiment: Test A: Antiviral Assays in MT4 Cells
# Format: cell-based
# Conditions: Human immunodeficiency virus 1, IIIB, MT4, 120 h, MT-4 cells infected with HIV-IIIb (0.004 m.o.i.), 5 days of incubation, CellTiter-Glo chemiluminescence readout; read-out: EC50
# Method: Test A: Antiviral Assays in MT4 Cells
# For the antiviral assay utilizing MT-4 cells, 0.4 μL of […] test concentration of 3-fold serially diluted compound in DMSO was added to 40 μL of cell growth medium (RPMI 1640, 10% FBS, 1% penicillin/Streptomycin, 1% L-Glutamine, 1% HEPES) in each well of 384-well assay plates (10 concentrations) in quadruplicate.
# 1 mL aliquots of 2×10e6 MT-4 cells are pre-infected for 1 and 3 hrs respectively, @37° C. with 25 μL (MT4) or of either cell growth medium (mock-infected) or a fresh 1:250 dilution of an HIV-IIIb concentrated ABI stock (0.004 m.o.i. for MT4 cells). Infected and uninfected cells are diluted in cell growth medium and 35 uL of 2000 (for MT4) cells is added to each well of the assay plates.
# Assay plates were then incubated in a 37° C. incubator. After 5 days of incubation, 25 μl of 2× concentrated CellTiter-Glo™ Reagent (catalog #G7573, Promega Biosciences, Inc., Madison, Wis.) was added to each well of the assay plate. Cell lysis was carried out by incubating at room temperature for 2-3 min and then chemiluminescence was read using the Envision reader (PerkinElmer).
row,SMILES,EC50 [µM]
1,"COc1ccc2c(-c3ccc(Cl)cc3)c(C(OC(C)(C)C)C(=O)O)c(C)cc2c1 (stereo not shown) [Compound 48, 2-tert-Butoxy-2-(1-(4-chlorophenyl)-6-methoxy-3-methylnaphthalen-2-yl)acetic acid]",0.21
2,"Cc1c(C(OC(C)(C)C)C(=O)O)c(-c2ccc(Cl)cc2)c2ccccc2c1-c1ccc(N(C)C)nc1 (stereo not shown) [Compound 137, 2-tert-Butoxy-2-(1-(4-chlorophenyl)-4-(6-(dimethylamino)pyridin-3-yl)-3-methylnaphthalen-2-yl)acetic acid]",0.13
3,"Cc1ccc2ccc(F)c(-c3c([C@H](OC(C)(C)C)C(=O)O)c(C)cc4ccccc34)c2n1 [Compound 17, (S)-2-(tert-Butoxy)-2-((S)-1-(7-fluoro-2-methylquinolin-8-yl)-3-methylnaphthalen-2-yl)acetic acid]",7.7
4,Cc1cc2ccccc2c(-c2ccc(C(F)(F)F)c3cccnc23)c1[C@H](OC(C)(C)C)C(=O)O [Compound 175],20
5,"C=Cc1c(C)c(C(OC(C)(C)C)C(=O)O)c(-c2ccc(Cl)cc2)c2ccccc12 (stereo not shown) [Compound 128, 2-tert-Butoxy-2-(1-(4-chlorophenyl)-3-methyl-4-vinylnaphthalen-2-yl)acetic acid]",5.3
6,"Cc1cc2ccccc2c(-c2ccc(F)c3cccnc23)c1[C@H](OC(C)(C)C)C(=O)O [Compound 10, (2S)-2-tert-Butoxy-2-(1-(5-fluoroquinolin-8-yl)-3-methylnaphthalen-2-yl)acetic acid]",36
7,"Cc1cc2c(Cl)cc(F)cc2c(-c2ccc3c4c(ccnc24)CCO3)c1[C@H](OC(C)(C)C)C(=O)O [Compound 111, (2S)-2-tert-Butoxy-2-(5-chloro-1-(2,3-dihydropyrano[4,3,2-de]quinolin-7-yl)-7-fluoro-3-methylnaphthalen-2-yl)acetic acid]",1.1
8,"Cc1cc2c(C#N)c(C)ccc2c(-c2ccc3c4c(ccnc24)CCO3)c1[C@H](OC(C)(C)C)C(=O)O (atropisomer, axis not shown) [Compound 118, (S)-2-tert-Butoxy-2-((R)-5-cyano-1-(2,3-dihydropyrano[4,3,2-de]quinolin-7-yl)-3,6-dimethylnaphthalen-2-yl)acetic acid]",0.036
9,"Cc1cc2cc(Cl)c(F)cc2c(-c2ccc3c4c(ccnc24)CCO3)c1[C@H](OC(C)(C)C)C(=O)O (atropisomer, axis not shown) [Compound 171]",36
10,"Cc1cc2cc(-c3ncccn3)ccc2c(-c2ccc(Cl)cc2)c1[C@H](OC(C)(C)C)C(=O)O [Compound 59, (S)-2-tert-butoxy-2-(1-(4-chlorophenyl)-3-methyl-6-(pyrimidin-2-yl)naphthalen-2-yl)acetic acid]",0.16
11,"Cc1cc2ccc(Cl)cc2c(-c2ccc3c4c(ccnc24)CCO3)c1[C@H](OC(C)(C)C)C(=O)O (atropisomer, axis not shown) [Compound 180]",29
12,"Cc1cc2cc(-c3ccc(Cl)cc3)ccc2c(-c2ccc(Cl)cc2)c1C(OC(C)(C)C)C(=O)O (stereo not shown) [Compound 66, 2-(1,6-Bis(4-chlorophenyl)-3-methylnaphthalen-2-yl)-2-tert-butoxyacetic acid]",0.29
13,"Cc1c([C@H](OC(C)(C)C)C(=O)O)c(-c2ccc3c4c(ccnc24)CCO3)c2ccccc2c1F (atropisomer, axis not shown) [Compound 178]",34
14,"Cc1cc2ccc(C#CC3(N)CCCCC3)cc2c(-c2ccc(Cl)cc2)c1C(OC(C)(C)C)C(=O)O (stereo not shown) [Compound 84, 2-(7-((1-Aminocyclohexyl)ethynyl)-1-(4-chlorophenyl)-3-methylnaphthalen-2-yl)-2-tert-butoxyacetic acid]",0.014
15,"Cc1cc2ccc(C#CC(C)(C)C)cc2c(-c2ccc(Cl)cc2)c1C(OC(C)(C)C)C(=O)O (stereo not shown) [Compound 72, 2-tert-Butoxy-2-(1-(4-chlorophenyl)-7-(3,3-dimethylbut-1-ynyl)-3-methylnaphthalen-2-yl)acetic acid]",2
16,"Cc1cc2ccc(C#CC3(O)CCCC3)cc2c(-c2ccc(Cl)cc2)c1C(OC(C)(C)C)C(=O)O (stereo not shown) [Compound 73, 2-tert-butoxy-2-(1-(4-chlorophenyl)-7-((1-hydroxycyclopentyl)ethynyl)-3-methylnaphthalen-2-yl)acetic acid]",0.13
17,"Cc1cc2cc(-c3cncn3C)ccc2c(-c2ccc(Cl)cc2)c1[C@H](OC(C)(C)C)C(=O)O [Compound 65, (S)-2-tert-butoxy-2-(1-(4-chlorophenyl)-3-methyl-6-(1-methyl-1H-imidazol-5-yl)naphthalen-2-yl)acetic acid]",0.19
18,"Cc1cc2cc(-c3cccnc3)ccc2c(-c2ccc(Cl)cc2)c1[C@H](OC(C)(C)C)C(=O)O [Compound 54, (S)-2-tert-Butoxy-2-(1-(4-chlorophenyl)-3-methyl-6-(pyridin-3-yl)naphthalen-2-yl)acetic acid]",0.055
19,"Cc1c(C(OC(C)(C)C)C(=O)O)c(-c2ccc(Cl)cc2)c2ccccc2c1-c1ccc(=O)[nH]c1 (stereo not shown) [Compound 144, 2-tert-Butoxy-2-(1-(4-chlorophenyl)-3-methyl-4-(6-oxo-1,6-dihydropyridin-3-yl)naphthalen-2-yl)acetic acid]",1.3
20,"Cc1cc2ccccc2c(-c2ccc(Cl)cc2Cl)c1C(OC(C)(C)C)C(=O)O (stereo not shown) [Compound 33, tert-Butoxy-[1-(2,4-dichloro-phenyl)-3-methyl-naphthalen-2-yl]-acetic acid]",0.12
21,"Cc1cc2ccc(C#CC(C)(C)N)cc2c(-c2ccc3c(c2)CCCO3)c1C(OC(C)(C)C)C(=O)O (stereo not shown) [Compound 87, 2-(7-(3-Amino-3-methylbut-1-ynyl)-1-(chroman-6-yl)-3-methylnaphthalen-2-yl)-2-tert-butoxyacetic acid]",0.072
22,"COc1cccc2c(-c3ccc(Cl)cc3)c(C(OC(C)(C)C)C(=O)O)c(C)cc12 (stereo not shown) [Compound 34, tert-Butoxy-[1-(4-chloro-phenyl)-5-methoxy-3-methyl-naphthalen-2-yl]-acetic acid]",0.35
23,"Cc1cc2c(Br)cccc2c(-c2ccc(Cl)cc2)c1C(OC(C)(C)C)C(=O)O (stereo not shown) [Compound 37, 2-(5-Bromo-1-(4-chlorophenyl)-3-methylnaphthalen-2-yl)-2-tert-butoxyacetic acid]",1.2

# Same assay, conditions: MT-4 cells infected with HIV-IIIb (0.004 m.o.i.), 5 days of incubation, CellTiter-Glo chemiluminescence readout; read-out: EC50
row,SMILES,EC50 [µM]
1,"Cc1cc2ccccc2c(-c2ccc(C(F)(F)F)c3cccnc23)c1[C@H](OC(C)(C)C)C(=O)O [Compound 7D, (S)-2-tert-butoxy-2-((R)-3-methyl-1-(5-(trifluoromethyl)quinolin-8-yl)naphthalen-2-yl)acetic acid]",1.7
2,"Cc1cc2cc(F)ccc2c(-c2ccc3c4c(ccnc24)CCO3)c1C(OC(C)(C)C)C(=O)O [Compound 43, 2-tert-butoxy-2-((R)-1-(2,3-dihydropyrano[4,3,2-de]quinolin-7-yl)-6-fluoro-3-methylnaphthalen-2-yl)acetic acid]",0.022
3,"Cc1cc2c(F)c(CN(C)C)ccc2c(-c2ccc3c4c(ccnc24)CCO3)c1[C@H](OC(C)(C)C)C(=O)O [Compound 186A, (S)-2-tert-butoxy-2-((R)-1-(2,3-dihydropyrano[4,3,2-de]quinolin-7-yl)-6-((dimethylamino)methyl)-5-fluoro-3-methylnaphthalen-2-yl)acetic acid]",1.69
4,"Cc1cc2cc(C)c([C@H](OC(C)(C)C)C(=O)O)c(-c3ccc4c5c(ccnc35)CCO4)c2cc1F (atropisomer, axis not shown) [Compound 156]",7.3
5,"Cc1cc2ccc(F)cc2c(-c2ccc3c4c(ccnc24)CCO3)c1[C@H](OC(C)(C)C)C(=O)O (racemic) [Compound 123, (±)-(2S)-2-tert-Butoxy-2-((R)-1-(2,3-dihydropyrano[4,3,2-de]quinolin-7-yl)-7-fluoro-3-methylnaphthalen-2-yl)acetic acid]",0.024
6,"Cc1cc2ccccc2c(-c2cc(F)cc3cccnc23)c1[C@H](OC(C)(C)C)C(=O)O (atropisomer, axis not shown) [Compound 9, (S)-2-tert-Butoxy-2-(1-((R)-6-fluoroquinolin-8-yl)-3-methylnaphthalen-2-yl)acetic acid]",1.3
7,Cc1cc2ccccc2c(-c2ccc3c4c(ccnc24)CCO3)c1[C@H](OC(C)(C)C)C(=O)O [Compound 161],4.7
8,"Cc1cc2ccccc2c(-c2ccc(C(F)(F)F)c3cccnc23)c1[C@H](OC(C)(C)C)C(=O)O [Compound 7E, (S)-2-tert-butoxy-2-((S)-3-methyl-1-(5-(trifluoromethyl)quinolin-8-yl)naphthalen-2-yl)acetic acid]",20
9,"CNC(=O)c1cc2cc(C)c([C@H](OC(C)(C)C)C(=O)O)c(-c3ccc4c5c(ccnc35)CCO4)c2cc1F [Compound 107, (S)-2-tert-Butoxy-2-((R)-1-(2,3-dihydropyrano[4,3,2-de]quinolin-7-yl)-7-fluoro-3-methyl-6-(methylcarbamoyl)naphthalen-2-yl)acetic acid]",0.092
10,Cc1cc2cc(F)ccc2c(-c2ccc3c4c(ccnc24)CCO3)c1C(OC(C)(C)C)C(=O)O (stereo not shown) [Compound 162],1.4
11,Cc1cc2ccccc2c(-c2cc(F)cc3cccnc23)c1[C@H](OC(C)(C)C)C(=O)O [Compound 158],35
